Patent publication US5468760A, “Aralkyl-N-hydroxyureas as inhibitors of 5-lipoxygenase and oxidation of low density lipoprotein” (American Home Products Corporation, priority 1993, dated 1995)
Values belong to the compound of their own block, whether it stands above or below them.

Tests used:
[1] = molecular target: T1, 5-Lipoxygenase (Homo sapiens, UniProt P09917); assay: Inhibition of 5-Lipoxygenase in Human Whole Blood (LTB4, calcium ionophore A23187); assay type: cell-based
T1 construct: endogenous in cells; host or cells: human whole blood from male donors (results expressed per 10^6 neutrophils)
T1 sequence (P09917 1-674): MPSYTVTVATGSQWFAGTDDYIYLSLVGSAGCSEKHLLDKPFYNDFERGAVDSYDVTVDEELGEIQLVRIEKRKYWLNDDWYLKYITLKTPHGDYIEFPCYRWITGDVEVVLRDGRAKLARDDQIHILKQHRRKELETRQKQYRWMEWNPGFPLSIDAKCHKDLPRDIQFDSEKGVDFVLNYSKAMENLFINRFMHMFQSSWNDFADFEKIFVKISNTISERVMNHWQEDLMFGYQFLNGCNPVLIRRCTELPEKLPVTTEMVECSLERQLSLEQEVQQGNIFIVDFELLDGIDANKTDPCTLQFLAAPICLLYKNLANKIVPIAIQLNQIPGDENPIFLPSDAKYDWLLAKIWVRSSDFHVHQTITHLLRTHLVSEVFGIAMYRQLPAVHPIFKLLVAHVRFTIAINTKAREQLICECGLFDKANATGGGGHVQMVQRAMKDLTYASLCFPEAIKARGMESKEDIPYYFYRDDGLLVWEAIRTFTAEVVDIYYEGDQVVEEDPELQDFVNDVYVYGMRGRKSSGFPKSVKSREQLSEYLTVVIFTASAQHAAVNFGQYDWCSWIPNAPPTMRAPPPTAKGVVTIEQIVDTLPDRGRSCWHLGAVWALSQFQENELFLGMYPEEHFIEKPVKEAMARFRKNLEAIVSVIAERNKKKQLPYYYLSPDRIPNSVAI
Experimental: 1. Inhibition of 5-Lipoxygenase in Human Whole Blood
Blood is obtained in 50-100 ml quantities from male donors. White blood cell counts and differentials are made. Two ml of blood are placed in a 15 ml polypropylene test tube. Test compounds are solubilized in dimethylsulfoxide and diluted in 1:10 in 10% bovine serum albumin in phosphate buffered saline, pH 7.4 resulting in a final dimethylsulfoxide concentration of 0.1% in the blood. Then, solutions of test compounds are added to the blood in a shaking water bath at 37° C. for 10 minutes prior to the addition of 30 μM calcium ionophore (A23 187, Sigma). After ionophore administration, whole blood samples are mixed and incubated for 20 minutes at 37° C. in a shaking water bath. Incubation is terminated by placing samples in an ice bath and immediately adding ethylene glycol-bis-(β-aminoethyl ether)-N,N,N',N'-tetraaceticacid (10 mM). Samples are mixed and centrifuged at 1200 x g for 15 minutes at 4° C. Preparation of samples for evaluation by RIA or ELISA is carried out by the following protocol. Plasma is removed from sample tubes, placed in 15 ml polypropylene test tubes containing 8 ml methanol, and then vortexed to precipitate protein. Samples are stored at -70° C. overnight. The next day, samples are centrifuged at 200 x g for 15 minutes at 4° C. to pellet the precipitate. Samples are dried in a Savant SpeedVac Concentrator, Model SVC 200H, reconstituted to original volume with ice cold RIA or ELISA buffer, and stored at -70° C. until assayed. The assay for eicosanoids (LTB4, TxB2, and PGE2) is performed as described by the manufacturer of the [^3 H]-RIA kit or ELISA kit (LTB4 -Amersham, TxB2 and PGE2 -Caymen Chemical).
The total eicosanoid level in 2 ml of blood is calculated and reported as ng/10^6 neutrophils. Significance is determined by a one-way analysis of variance with least significant difference (LSD) comparisons to control (p≤0.05) and IC50 's (μM) are determined by regression analysis (Finney, 1978). Drug effects are expressed as percent change from control values.

[2] = system: LTB4 Synthesis; assay: Reverse Passive Arthus Reaction (pleurisy), LTB4 in pleural exudate; assay type: in vivo, rat (male Lewis); details: for ED50: Rattus norvegicus, po, values in parentheses are ED50, read-out: (ED50) Inhibition of LTB4; for ED50 / % Inhibition of LTB4: standard drugs
Experimental: 3. Reverse Passive Arthus Reaction
A reverse passive Arthus reaction is induced in the pleural cavity of male Lewis rats (150-200 g; fasted overnight prior to use) by the intravenous administration of bovine serum albumin (BSA; 4 mg/0.2 ml) followed 30 minutes later by the injection of rabbit anti-BSA (1 mg/0.2 ml; lyophilized IgG fraction; Organon Teknika, West Chester, Pa.) into the right pleural space under halothane anesthesia. Drugs or vehicle (0.5% Tween-80) control are administered orally in a volume of 1 ml/100 g body weight at 1 hour prior to the anti-BSA. Animals are sacrificed at either the time of peak eicosanoid production (i.e. 5 minutes after anti-BSA for immunoreactive TxB2, 10 minutes for immunoreactive LTB4, 20 minutes for immunoreactive LTC4) or at the time of peak neutrophil infiltration (4 hours after anti-BSA) by CO2 inhalation. The pleural cavity is then exposed., the fluid exudate removed by gentle vacuum aspiration and the volume of exudate is recorded. For the determination of cellular infiltration, the pleural cavity is rinsed with 3 ml of 0.1% EDTA in sterile saline, and the recovered wash is pooled with the exudate. Cell number is determined on a model ZBI Coulter counter. For determination of eicosanoid production, undiluted pleural exudate is microfuged and the supernatant is extracted with ethanol (8-10 times volume). Extracts are either stored at -20° C., or are evaporated to dryness under a stream of N2 and reconstituted in radioimmunoassay (RIA) buffer.
Eicosanoids are quantitated by RIA according to the procedure specified by the RIA kit manufacturer (Advanced Magnetics, Cambridge, Mass.). Briefly, 100 μl of ^3 H-labeled eicosanoid and 100 μl of specific antibody are sequentially added to 100 μl of extracted pleural exudate in BGG-phosphate buffer which contains 0.01M phosphate, 0.1% bovine gamma globulin and 0.1% sodium azide at pH 7.0. Antibody-bound eicosanoid is separated from unbound eicosanoid by the addition of 750 μl of dextran (0.4%)-coated charcoal (Norit A) containing 0.1% sodium azide. The mixture is centrifuged at 2000 RPM at 5° C. for 15 minutes to pellet the charcoal and adsorbed unbound eicosanoid. Antibody-bound labeled eicosanoid is quantitated by counting in a liquid scintillation counter, and is correlated to concentration by a standard curve.

[3] = system: LT-dependent bronchoconstriction; assay: Inhibition of Bronchoconstriction in Guinea Pigs Induced by Exogenously Administered Antigen; assay type: in vivo, guinea pig (male); details: Cavia porcellus, 5 min, 5 min post-antigen challenge; for inhibition in vivo at 10 mg/kg: iv, 10 mg/kg i.v.
Experimental: 4. Inhibition of Brochoconstriction in Guinea Pigs Induced by Exogenously Administered Antigen
Male guinea pigs (Charles River, Wilmington, Mass.) were sensitized 3-4 weeks prior to antigen challenge by administration of 2 i.m. injections of ovalbumin, 1 into each hind limb (35 mg total). Sensitized animals (500-600 g) were fasted overnight prior to experimentation. Conscious animals were then dosed p.o. with drug or vehicle alone (0.5% Tween 80 in H2 O) at the indicated times prior to antigen challenge, or anesthetized animals were dosed i.v. with drug or vehicle alone (DMSO) 5 min prior to antigen challenge. Animals were anesthetized by urethane (2.8 g/kg i.p.). A carotid artery and jugular vein were cannulated to allow for the monitoring of blood pressure and the administration of drugs, respectively. The trachea was then cannulated and connected to a Harvard Apparatus rodent ventilator (S. Natick, Mass.). Spontaneous respiration was abolished by the administration of succinylcholine (2.5 mg/kg i.v.). The animals were then ventilated with room air at a rate of 65 breaths per min. Airway inflation pressure was measured using a Statham pressure transducer (Gould Instruments, Cleveland, Ohio) connected to the tracheal cannula via a side-arm and recorded on a Grass Instruments recorder (Quincy, Mass.). The tidal volume (approximately 10 cc/kg) was adjusted to give a baseline inflation pressure of 8-10 cm H2 O at end inspiration. Animals were then allowed 20 min to stabilize.
Following the stabilization period, animals were given i.v. injections of pyrilamine (5 mg/kg), propranolol (0.1 mg/kg) and indomethacin (10 mg/kg) at 15, 10 and 5 min, respectively, prior to antigen challenge. This pretreatment results in an LT-dependent bronchoconstriction following antigen challenge, which was accomplished by i.v. administration of ovalbumin (10 mg/kg). Only one bronchoconstriction per animal was induced. End-inspiratory inflation pressure (in cm H2 O over baseline) was measured at 5 min post-antigen challenge. A mean value and standard error for the % inhibition of control bronchoconstriction in each drug-treated group was then calculated.

Compound: 1,3-Dihydroxy-1-[4-(5-methyl-2-phenyl-oxazol-4-ylmethoxy)-benzyl]-urea [Example 17]
- % Inhibition of LTB4 ([1]; 10 μM): 83%

Compound: NC1=NN(c2cccc(C(F)(F)F)c2)CC1 [BW755C, reference compound]
- ED50 ([2]; p.o.): 23 mg/kg

Compound: O=C(O)Cc1ccccc1Nc1c(Cl)cccc1Cl [Diclofenac, reference compound]
- % Inhibition of LTB4 ([2]; 10 mg/kg p.o.): 0%

Compound: NC(=S)N(O)Cc1cccc(OCc2coc(-c3ccc(F)cc3)n2)c1 [Example 4, 1-Hydroxy-1-[3-[2-(4-fluoro-phenyl)-oxazol-4-ylmethoxy]-benzyl]-thiourea]
- inhibition in vivo at 10 mg/kg [3]: 53%
- inhibition at 1 µM [1]: 61%

Compound: COc1ccc(-c2nc(COc3cccc(CN(O)C(N)=O)c3)cs2)cc1 [Example 7, 1-Hydroxy-1-[3-[2-(4-methoxy-phenyl)-thiazol-4-ylmethoxy]-benzyl]-urea]
- inhibition in vivo at 10 mg/kg [3]: 58%
- inhibition in vivo at 25 mg/kg ([3]; po, 25 mg/kg p.o.): 18%
- inhibition at 1 µM [1]: 50%

Compound: Cc1oc(-c2ccc(Cl)cc2)nc1COc1cccc(CN(O)C(N)=O)c1 [Example 8, 1-[3-[2-(4-Chloro-phenyl)-5-methyl-oxazol-4-ylmethoxy]-benzyl]-1-hydroxy-urea]
- inhibition in vivo at 10 mg/kg [3]: 41%
- inhibition at 1 µM [1]: 77%
- % Inhibition LTB4 Synthesis ([2]; 10 mg/kg, p.o.): 39%

Compound: Cc1oc(-c2cccc(C(F)(F)F)c2)nc1COc1cccc(CN(O)C(N)=O)c1 [Example 10, 1-Hydroxy-1-[3-[2-(3-trifluoromethyl-phenyl)-5-methyl-oxazol-4-ylmethoxy]-benzyl]-urea]
- inhibition at 1 µM [1]: 51%

Compound: COc1ccc2c(c1)c(CC(=O)O)c(C)n2C(=O)c1ccc(Cl)cc1 [Indomethacin, reference compound]
- % Inhibition of LTB4 ([2]; 4 mg/kg p.o.): 12%

Compound: CC(C(=O)O)c1cccc(C(=O)c2ccccc2)c1 (stereo not shown) [Ketoprofen, reference compound]
- % Inhibition of LTB4 ([2]; 10 mg/kg p.o.): 35%

Compound: COc1ccc2cc([C@H](C)C(=O)O)ccc2c1 [Naproxen, reference compound]
- % Inhibition of LTB4 ([2]; 4 mg/kg p.o.): 0%

Compound: O=C1CCN(c2ccccc2)N1 [Phenidone, reference compound]
- ED50 ([2]; p.o.): 10 mg/kg

Now from value to compound:

- inhibition at 10 µM ([1]; 10 μM): 57%
Compound: Cc1oc(-c2cc(C(F)(F)F)cc(C(F)(F)F)c2)nc1COc1cccc(CN(O)C(N)=O)c1 [Example 11, 1-[3-[2-(3,5-Bis-trifluoromethyl-phenyl)-5-methyl-oxazol-4-ylmethoxy]-benzyl]-1-hydroxy-urea]

- inhibition at 10 µM ([1]; 10 μM): 85%
Compound: Cc1oc(-c2ccc(C(F)(F)F)cc2)nc1COc1cc(F)cc(CN(O)C(N)=O)c1 [Example 12, 1-[3-Fluoro-5-[5-methyl-2-(4-trifluoromethyl-phenyl)-oxazol-4-ylmethoxy]-benzyl]-1-hydroxy-urea]

- inhibition at 10 µM ([1]; 10 μM): 80%
Compound: Cc1oc(-c2ccccc2)nc1COc1cccc(C(C)N(O)C(N)=O)c1 (stereo not shown) [Example 14, 1-Hydroxy-1-[1-[3-(5-methyl-2-phenyl-oxazol-4-ylmethoxy)-phenyl]-ethyl]-urea]

- inhibition at 10 µM ([1]; 10 μM): 47%
Compound: CC(/C=C/c1cccc(OCc2csc(-c3ccccc3)n2)c1)N(O)C(N)=O (stereo not shown) [Example 15, (E)-1-Hydroxy-1-[1-methyl-3-[3-(2-phenyl-thiazol-4-ylmethoxy)-phenyl]-allyl]-urea]

- inhibition at 10 µM ([1]; 10 μM): 57%
Compound: Cc1oc(-c2ccc(Cl)cc2)nc1COc1cccc(/C=C/C(C)N(O)C(N)=O)c1 (stereo not shown) [Example 16, (E)-1-[3-[3-[2-(4-chlorophenyl)-5-methyl-oxazol-4-ylmethoxy]-phenyl]-1-methyl-allyl]-1-hydroxyl-urea]

- inhibition at 10 µM ([1]; 10 μM): 69%
Compound: Cc1oc(-c2ccccc2)nc1COc1cccc(CN(O)C(=O)N(C)O)c1 [Example 18, 1,3-Dihydroxy-3-methyl-1-[3-(5-methyl-2-phenyl-oxazol-4-ylmethoxy)benzyl]-urea]
